# Results reported in the Deep4Chem optical property database.
# Assay: photoluminescence quantum yield (fraction); solvent given as SMILES
# [1] = in O=P(c1ccccc1)(c1ccccc1)c1ccccc1Oc1ccccc1P(=O)(c1ccccc1)c1ccccc1
compound,measurement,setting,value
CC1=[N+]2C(=C(C3=CC4OCCOCCOCCOCCOC4C=C3)c3c4ccccc4c(/C=C/c4ccc(N(C)C)cc4)n3[B-]2(F)F)c2ccccc21 (stereo not given),photoluminescence quantum yield,in CC#N,0.24
Cc1ccc(-n2c(-c3ccccc3O)nc(-c3ccccc3O)c2-c2ccccc2O)cc1,photoluminescence quantum yield,in C1CCOC1,0.55
same,photoluminescence quantum yield,in CC(C)O,0.6
same,photoluminescence quantum yield,in CO,0.54
same,photoluminescence quantum yield,in CS(C)=O,0.31
same,photoluminescence quantum yield,in ClC(Cl)Cl,0.32
same,photoluminescence quantum yield,in ClCCl,0.37
c1ccc(/C(=C(\c2ccccc2)c2cc(-c3ccccc3)ccc2-c2ccc(-c3ccccc3)cc2)c2cc(-c3ccccc3)ccc2-c2ccc(-c3ccccc3)cc2)cc1,photoluminescence quantum yield,in C1CCOC1,0.38
Cc1cccc(C)c1Nc1ccc(/C=C/c2ccc3ccccc3c2)cc1,photoluminescence quantum yield,in CC#N,0.08
same,photoluminescence quantum yield,in CCCCCC,0.2
CCC12C(=C3C(=C4c5ccc(-c6ccc(C(C)=O)s6)cc5S(=O)(=O)C41CC)C(F)(F)C(F)(F)C3(F)F)c1ccc(-c3ccc(C(C)=O)s3)cc1S2(=O)=O (stereo not given),photoluminescence quantum yield,in C1COCCO1,0.61
CC(=C(C#Cc1ccccc1)C#Cc1ccccc1)c1ccc(C(C)=C(C#Cc2ccccc2)C#Cc2ccccc2)cc1,photoluminescence quantum yield,in ClC(Cl)Cl,0.03
C=Cc1cc2ccc(OC(=O)c3ccccc3)cc2oc1=O,photoluminescence quantum yield,in CC#N,0.23
Cn1c2ccc(S(=O)(=O)Cl)cc2c(=O)c2cc(S(=O)(=O)Cl)ccc21,photoluminescence quantum yield,in CS(C)=O,0.7
CC1=CC(C)=[N+]2C1=C(c1ccc(I)cc1)c1c(C)cc(C)n1[B-]2(OCc1ccccc1)OCc1ccccc1,photoluminescence quantum yield,in ClC(Cl)Cl,0.65
COC(=O)c1ccccc1C#Cc1ccccc1NC(C)=O,photoluminescence quantum yield,in CC#N,0.0002
same,photoluminescence quantum yield,in ClCCl,0.0003
CCC1=C(C)C2=C(C)c3cccn3[B-](F)(F)[N+]2=C1C,photoluminescence quantum yield,in C1CCCCC1,0.96
same,photoluminescence quantum yield,in CC(C)=O,0.79
same,photoluminescence quantum yield,in CCO,0.84
same,photoluminescence quantum yield,in CCOC(C)=O,0.84
same,photoluminescence quantum yield,in CO,0.76
same,photoluminescence quantum yield,in OCC(F)(F)F,0.75
Oc1c(-c2cccs2)cccc1-c1nc2ccccc2s1,photoluminescence quantum yield,in CCO,0.0075
same,photoluminescence quantum yield,in ClCCl,0.017
same,photoluminescence quantum yield,in O,0.01
Fc1ccc(-c2cc3ccc4cc(-c5ccc(F)cc5)cc5ccc(c2)c3c45)cc1,photoluminescence quantum yield,in C1CCCCC1,0.04
same,photoluminescence quantum yield,in C1CCOC1,0.07
same,photoluminescence quantum yield,in CC#N,0.08
same,photoluminescence quantum yield,in CCCCCC,0.02
same,photoluminescence quantum yield,in CCO,0.05
same,photoluminescence quantum yield,in CN(C)C=O,0.09
same,photoluminescence quantum yield,in CO,0.05
same,photoluminescence quantum yield,in Cc1ccccc1,0.07
same,photoluminescence quantum yield,in ClC(Cl)Cl,0.04
same,photoluminescence quantum yield,in ClCCl,0.05
COc1ccc(/C=C/C2=CC(/C=C/c3ccc(OC)c4ccccc34)=[O+][B-](F)(F)O2)c2ccccc12,photoluminescence quantum yield,in CC#N,0.12
same,photoluminescence quantum yield,in CC(C)=O,0.21
same,photoluminescence quantum yield,in CCOC(C)=O,0.31
same,photoluminescence quantum yield,in CCOCC,0.29
same,photoluminescence quantum yield,in ClC(Cl)(Cl)Cl,0.23
same,photoluminescence quantum yield,in ClCCl,0.39
c1ccc2cc(-n3cnc4ccccc43)ccc2c1,photoluminescence quantum yield,in C1CCCCC1,0.23
same,photoluminescence quantum yield,in CCOC(C)=O,0.18
same,photoluminescence quantum yield,in CO,0.16
CCOc1ccc2c(-c3nc(-c4cccc(Br)c4)no3)cc(=O)oc2c1,photoluminescence quantum yield,in CCO,0.52
same,photoluminescence quantum yield,in ClC(Cl)Cl,0.2
F[Si](c1ccccc1)(c1ccccc1)c1cc2ccccc2c2ccccc12,photoluminescence quantum yield,in C1CCOC1,0.11
CCN1C(=CC=Cc2n(CC)c3cc(Cl)c(Cl)cc3[n+]2CC)N(CC)c2cc(Cl)c(Cl)cc21,photoluminescence quantum yield,in CC#N,0.024
same,photoluminescence quantum yield,in CCCCCCO,0.058
same,photoluminescence quantum yield,in CCCCO,0.042
same,photoluminescence quantum yield,in CCCO,0.033
same,photoluminescence quantum yield,in CCO,0.023
same,photoluminescence quantum yield,in CO,0.016
same,photoluminescence quantum yield,in CS(C)=O,0.055
same,photoluminescence quantum yield,in OCC(O)CO,0.36
same,photoluminescence quantum yield,in OCCO,0.075
N#Cc1c(C#N)c2cc(F)ccc2c2ccc(F)cc12,photoluminescence quantum yield,in ClC(Cl)Cl,0.08
c1ccc(-c2nc(-c3ccccc3)nc(-n3c4ccccc4c4cc(-n5c6ccccc6c6ccccc65)cc(-n5c6ccccc6c6ccccc65)c43)n2)cc1,photoluminescence quantum yield,[1],0.85
COC(=O)C1=NNC(C(=O)OC)=C2c3ccccc3C(=O)c3ccccc3C12 (stereo not given),photoluminescence quantum yield,in CC#N,0.32
CC(C)[Si](C#Cc1c2ccc(C(C)(C)C)cc2c(C#C[Si](C(C)C)(C(C)C)C(C)C)c2ccc(C(C)(C)C)cc12)(C(C)C)C(C)C,photoluminescence quantum yield,in Cc1ccccc1,0.92
COC(=O)c1ccc(-c2ccc3c(c2)C(=O)c2cc(-c4ccc(C(=O)OC)cc4)ccc2-3)cc1,photoluminescence quantum yield,in C1CCOC1,0.02
N#C/C(=C\c1ccc(C#N)cc1)c1nc(-c2ccccc2)cs1,photoluminescence quantum yield,in CC#N,0.18
same,photoluminescence quantum yield,in CCO,0.18
same,photoluminescence quantum yield,in CN(C)C=O,0.272
same,photoluminescence quantum yield,in Cc1ccccc1,0.098
same,photoluminescence quantum yield,in ClCCl,0.131
CC(C)(C)c1ccc2c(c1)c1cc(C(C)(C)C)ccc1n2-c1cccc(-c2nc(-c3cccc(P(=O)(c4ccccc4)c4ccccc4)c3)nc(-c3cccc(P(=O)(c4ccccc4)c4ccccc4)c3)n2)c1,photoluminescence quantum yield,[1],0.72
CCCCC(CC)CN1C(=O)c2cc(Oc3ccc(OC)cc3)c3c4c(Oc5ccc(C(C)(C)C)cc5)cc5c6c(cc(Oc7ccc(C(C)(C)C)cc7)c(c7c(Oc8ccc(OC)cc8)cc(c2c37)C1=O)c64)C(=O)N(c1c(C(C)C)cccc1C(C)C)C5=O (stereo not given),photoluminescence quantum yield,in Cc1ccccc1,0.58
CCC1=C(C)C2=C(c3cc(C4=C5C(C)=C(CC)C(C)=[N+]5[B-](F)(F)n5c(C)c(CC)c(C)c54)cc(C4=C5C(C)=C(CC)C(C)=[N+]5[B-](F)(F)n5c(C)c(CC)c(C)c54)c3)c3c(C)c(CC)c(C)n3[B-](F)(F)[N+]2=C1C,photoluminescence quantum yield,in C1CCOC1,0.91
same,photoluminescence quantum yield,in CC#N,0.62
same,photoluminescence quantum yield,in CN(C)C=O,0.73
same,photoluminescence quantum yield,in Cc1ccccc1,0.95
same,photoluminescence quantum yield,in ClC(Cl)Cl,0.88
C[C@]12SC(=O)C=C1c1nc(-c3ccccc3)[nH]c1C1=CC(=O)S[C@@]12C,photoluminescence quantum yield,in CC#N,0.16
Cc1cc(C)c(C2=C3C=CC=[N+]3[B-]3(F)Oc4cc(O)cc5c6ccc(C)cc6c6cc2n3c6c45)c(C)c1 (stereo not given),photoluminescence quantum yield,in ClC(Cl)Cl,0.35
CCOc1ccc(/C=C/C=C/C=C/c2ccc([N+](=O)[O-])cc2)cc1,photoluminescence quantum yield,in CC1CCCCC1,0.22
same,photoluminescence quantum yield,in CC#N,0.017
same,photoluminescence quantum yield,in Cc1ccccc1,0.5
same,photoluminescence quantum yield,in ClCCl,0.068
C1=C(c2ccccc2)C(c2ccccc2)=CC1c1ccccc1,photoluminescence quantum yield,in C1CCOC1,0.0137
CN(C)c1cccc2c1C(=O)c1ccccc1-2,photoluminescence quantum yield,in C1CCCCC1,0.0016
same,photoluminescence quantum yield,in CC#N,0.0027
same,photoluminescence quantum yield,in CCO,0.004
same,photoluminescence quantum yield,in c1ccccc1,0.0024
F[B-]1(F)Oc2ccccc2-c2c3c(c4c([n+]21)CCc1ccccc1-4)CCc1ccccc1-3,photoluminescence quantum yield,in ClCCl,0.11
CN1c2ccc(C(=O)c3ccccc3)cc2Sc2cc(C(=O)c3ccccc3)ccc21,photoluminescence quantum yield,in C1CCCCC1,0.43
same,photoluminescence quantum yield,in C1CCOC1,0.28
same,photoluminescence quantum yield,in CN(C)C=O,0.18
same,photoluminescence quantum yield,in Cc1ccccc1,0.4
same,photoluminescence quantum yield,in ClC(Cl)Cl,0.21
same,photoluminescence quantum yield,in ClCCl,0.23
CCCCN(CCCC)c1ccc(C#Cc2cc(C#Cc3ccc(N(CCCC)CCCC)cc3)c(C#Cc3ccc(C#N)cc3)cc2C#Cc2ccc(C#N)cc2)cc1,photoluminescence quantum yield,in ClCCl,0.35
CCCCCCCCCCCCOc1cc2cc(N(C)C)ccc2cc1C=O,photoluminescence quantum yield,in ClCCl,0.93
O=C1[C@@H]2[C@H](C(=O)N1c1ccc3cc4ccccc4cc3c1)[C@@H]1C=C[C@H]2C1,photoluminescence quantum yield,in ClC(Cl)Cl,0.24
CCCCCCCCCCCCOc1cc2c3c(ccc4c5c(SCCCCCCCCCCCC)cc6c7c(ccc(c1c34)c75)C(=O)N(C1CCCCC1)C6=O)C(=O)N(C1CCCCC1)C2=O,photoluminescence quantum yield,in ClC(Cl)Cl,0.39
CC(C)(C)c1ccc2oc3nc4oc5ccc(N6c7ccccc7Oc7ccccc76)cc5c4cc3c2c1,photoluminescence quantum yield,in ClC(Cl)Cl,0.057
COc1ccccc1C1=C2C(C)=CC(C)=[N+]2[B-](F)(F)n2c(C)cc(C)c21,photoluminescence quantum yield,in C1CCOC1,0.87
same,photoluminescence quantum yield,in CC#N,0.57
same,photoluminescence quantum yield,in CC(=O)C(C)(C)C,0.74
same,photoluminescence quantum yield,in CC(C)=O,0.78
same,photoluminescence quantum yield,in CCCCCC,0.98
same,photoluminescence quantum yield,in CCOC(C)=O,0.76
same,photoluminescence quantum yield,in CO,0.69
Fc1c(-n2c3ccccc3c3ccccc32)c(F)c(-n2c3ccccc3c3ccccc32)c(-c2nnc(-c3ccccc3)o2)c1-n1c2ccccc2c2ccccc21,photoluminescence quantum yield,in Cc1ccccc1,0.06
CCCCCCN1C(=O)c2cccc3c(-c4ccc(-c5cc(-c6ccccc6)nn5-c5ccccc5)s4)ccc(c23)C1=O,photoluminescence quantum yield,in ClCCl,0.16
O=c1oc2ccccc2cc1-c1nc2ccccc2o1,photoluminescence quantum yield,in C1CCOC1,0.77
same,photoluminescence quantum yield,in C1COCCO1,0.84
same,photoluminescence quantum yield,in CC1CCCCC1,0.94
same,photoluminescence quantum yield,in CC#N,0.72
same,photoluminescence quantum yield,in CC(C)=O,0.76
same,photoluminescence quantum yield,in CC(C)CO,0.8
same,photoluminescence quantum yield,in CC(C)O,0.76
same,photoluminescence quantum yield,in CCOC(C)=O,0.86
same,photoluminescence quantum yield,in CN(C)C=O,0.72
same,photoluminescence quantum yield,in CO,0.67
same,photoluminescence quantum yield,in CS(C)=O,0.77
same,photoluminescence quantum yield,in Cc1ccccc1,0.83
same,photoluminescence quantum yield,in ClC(Cl)(Cl)Cl,0.92
same,photoluminescence quantum yield,in ClC(Cl)Cl,0.87
same,photoluminescence quantum yield,in OCCO,0.68
CN(C)c1ccc2nc(-c3ccc(C=C4C(=O)c5ccccc5C4=O)cc3)sc2c1,photoluminescence quantum yield,in C1CCCCC1,0.13
same,photoluminescence quantum yield,in CC#N,0
same,photoluminescence quantum yield,in CO,0
same,photoluminescence quantum yield,in ClC(Cl)Cl,0.35
CCC1=C(CC)C(C)=[N+]2C1=Cc1c(C)c3cc4c(cc3n1[B-]2(F)F)=[N+]1C(=Cc2c(CC)c(CC)c(C)n2[B-]1(F)F)C=4C,photoluminescence quantum yield,in ClC(Cl)Cl,0.72
COC(=O)c1cc(=O)n(C)c2cc(-c3ccc(OC)cc3)sc12,photoluminescence quantum yield,in C1CCOC1,0.99
same,photoluminescence quantum yield,in CC#N,0.77
same,photoluminescence quantum yield,in CCO,0.99
same,photoluminescence quantum yield,in CN(C)C=O,0.99
same,photoluminescence quantum yield,in CO,0.99
same,photoluminescence quantum yield,in CS(C)=O,0.99
same,photoluminescence quantum yield,in Cc1ccccc1,0.98
same,photoluminescence quantum yield,in ClC(Cl)Cl,0.95
same,photoluminescence quantum yield,in ClCCl,0.9
O=C1/C(=C2\Sc3ccc(S(=O)(=O)O)cc3C2=O)Sc2ccc(S(=O)(=O)O)cc21,photoluminescence quantum yield,in CN(C)C=O,0.25
same,photoluminescence quantum yield,in CO,0.008
same,photoluminescence quantum yield,in CS(C)=O,0.008
same,photoluminescence quantum yield,in O,0.005
CCCCCCCCCCCCN1C(=O)c2c(c3ccc4cc(-c5cccs5)c(OC)cc4c3c3c2ccc2cc(-c4cccs4)c(OC)cc23)C1=O,photoluminescence quantum yield,in ClCCl,0.216
